Results as given in PMC11284788, “NN1213 – A Potent, Long-Acting, and Selective Analog of Human Amylin” (Journal of Medicinal Chemistry, 2024).
In brackets after ≈: the same amount, converted by molar mass. Read-outs that look alike come from different tables or passages of the source. Numbered stars: 1 amine (or outer) side, 2 acyl side, 3 side chain; on linkers, the order of the positions; unused ones are H or OH. Bridge positions count the residues as written; N and C are the ends. Side chains are listed from the residue outwards. Peptide text beside a SMILES is read from it. * marks the point of attachment. C20 diacid = O=C(O)CCCCCCCCCCCCCCCCCCC(=O)*; γGlu = O=C(O)[C@H](CCC(=O)[*:2])N[*:1]

What was measured:
[1] = Solubility versus pH profile
hAMY3R = molecular target: T1, hAMY3R (Homo sapiens, UniProt O60896+P30988); experiment: cAMP-responsive element luciferase reporter assay, human AMY3R; type: cell-based; design: expressed in transfected cells; details: for ratio hCTR/hAMY3R: ratio of luciferase EC50 values
T1 sequence (P30988 25-474): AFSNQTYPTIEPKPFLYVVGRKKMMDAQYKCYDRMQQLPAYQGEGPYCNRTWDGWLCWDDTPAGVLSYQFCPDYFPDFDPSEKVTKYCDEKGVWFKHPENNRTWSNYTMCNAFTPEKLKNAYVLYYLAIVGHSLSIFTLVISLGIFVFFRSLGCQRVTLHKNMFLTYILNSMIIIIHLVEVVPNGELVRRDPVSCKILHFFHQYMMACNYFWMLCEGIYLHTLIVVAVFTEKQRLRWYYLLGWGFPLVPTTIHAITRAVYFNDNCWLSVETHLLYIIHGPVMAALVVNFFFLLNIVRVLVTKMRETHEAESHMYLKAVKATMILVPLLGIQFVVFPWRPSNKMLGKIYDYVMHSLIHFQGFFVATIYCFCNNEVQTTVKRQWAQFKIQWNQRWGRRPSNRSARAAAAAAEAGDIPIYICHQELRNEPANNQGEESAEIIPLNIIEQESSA
T1 sequence (O60896 24-148 partner): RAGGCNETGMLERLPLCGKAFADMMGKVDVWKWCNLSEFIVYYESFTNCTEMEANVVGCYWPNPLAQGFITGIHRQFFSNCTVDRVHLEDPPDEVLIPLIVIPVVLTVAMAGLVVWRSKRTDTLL

rAMY3R = molecular target: T2, rAMY3R (Rattus norvegicus, UniProt P32214+Q9JJ73); experiment: scintillation proximity binding assay, rAMY3R membranes; design: expressed in transfected cells; host or cells: BHK tk-ts 13, transient co-transfection (FuGENE 6); details: for ratio rCTR/rAMY3R: ratio of binding IC50 values
T2 sequence (P32214 25-479 isoform P32214-2 limits assumed): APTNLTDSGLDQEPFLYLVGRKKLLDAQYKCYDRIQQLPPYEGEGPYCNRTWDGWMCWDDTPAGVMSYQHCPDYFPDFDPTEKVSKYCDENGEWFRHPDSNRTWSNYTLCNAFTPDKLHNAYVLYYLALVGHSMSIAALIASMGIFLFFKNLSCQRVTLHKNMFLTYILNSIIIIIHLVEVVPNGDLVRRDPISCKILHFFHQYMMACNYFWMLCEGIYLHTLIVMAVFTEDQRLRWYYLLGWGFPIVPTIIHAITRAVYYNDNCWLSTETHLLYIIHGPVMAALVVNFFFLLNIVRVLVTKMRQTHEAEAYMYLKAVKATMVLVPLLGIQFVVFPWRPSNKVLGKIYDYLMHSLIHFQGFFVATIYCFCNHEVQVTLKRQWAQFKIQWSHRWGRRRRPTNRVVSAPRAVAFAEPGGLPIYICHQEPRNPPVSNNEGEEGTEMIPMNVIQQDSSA
T2 sequence (Q9JJ73 23-147 partner): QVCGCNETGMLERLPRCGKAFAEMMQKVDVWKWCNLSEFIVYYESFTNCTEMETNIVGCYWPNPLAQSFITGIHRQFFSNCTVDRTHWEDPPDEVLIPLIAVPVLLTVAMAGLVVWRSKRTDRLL
Method: The apparent binding affinities were determined using a scintillation proximity assay with beads from PerkinElmer and cell membranes containing the AMY3R or CTRs. […] Membranes were harvested and membranes were prepared and kept at −80 °C until use. The assay was performed in a 384-well Optiplate (PerkinElmer). Membranes were mixed with scintillation proximity assay beads in a 1:1 ratio. […] Samples were analyzed on a TopCounter (Packard). The IC50 values were calculated using GraphPad Prism. See Supporting Information S7: SAR Screening Assay Methods (Binding Assays (Human and Rat)) for more information.
Binding Assays (Human and Rat). Brief descriptions of the methods used to determine binding affinities for SAR analysis are described below. Curves and IC50 values were plotted and calculated in GraphPad Prism using nonlinear regression (one site binding competition analysis), with pIC50 values […]
values were used to calculate the binding affinity ratios in order to express the selectivity of compounds for the AMY3R versus the CTR.
CTR Binding Assay. The binding assay was performed using scintillation proximity assay (SPA) beads (RPNQ0001) from PerkinElmer and cell membranes containing either the hCTR or rCTR. BHK […]
(§1) Membranes were prepared in the following way: the cells were rinsed with PBS and incubated with Versene for approximately 5 min before harvesting. The cells were flushed with PBS and the cell-suspension was centrifuged for 5 min at 1000 rpm. Cells were homogenized (Ultra Turrax) in a buffer […]
containing 20 mM Na-HEPES and 0.1 mM EDTA (pH 7.4, buffer 2). The resulting pellet was re-suspended in buffer 2 and protein concentration was measured (BCA protein assay, Pierce). The homogenate was kept cold during the whole procedure. The membranes were stored at –80 °C until […]
The binding assay was performed in a 384-well Optiplate (PerkinElmer) in a total volume of 40 μL.
Membranes were mixed with SPA beads in a 1:1 ratio. […]
mg/well. Test compounds were dissolved in DMSO and further diluted in assay buffer (50 mM HEPES, pH 7.4, 1 mM CaCl2, 5 mM MgCl2, 0.1% ovalbumin, and 0.02% Tween-20).
Calcitonin (NEX422 PerkinElmer) was dissolved in assay buffer and added to the Optiplate at a final […]
prior to centrifugation (1500 rpm, 10 min). Samples were analyzed on TopCounter (Packard).
AMY3R Binding Assay. The binding assay was performed using SPA beads (RPNQ0001) from PerkinElmer and cell membranes containing either the hAMY3R or rAMY3R. BHK tk-ts 13 cells were […]
as §1, with “and cultured as described above. Membranes” for “Membranes”, “buffer containing 20 mM Na-HEPES and 10 mM EDTA (pH 7.4), and” for “buffer”
The resulting pellet was re-suspended, homogenized, and
7.4, buffer 2). The resulting pellet was re-suspended in buffer 2 and protein concentration was measured (BCA protein assay, Pierce). The homogenate was kept cold during the whole procedure.
The membranes were stored at –80 °C until use.
Membranes were mixed with SPA beads in a 1:1 ratio. The final concentration of SPA beads was 0.05 mg/well. Test compounds were dissolved in DMSO and further diluted in assay buffer (50 mM […]
rAMY (NEX448 PerkinElmer) was dissolved in assay buffer and added to the Optiplate at a final

[2] = bis-tris-propane buffer, pH 6, aqueous buffer
[3] = bis-tris-propane buffer, pH 6.5, aqueous buffer
[4] = bis-tris-propane buffer, pH 7, aqueous buffer
[5] = bis-tris-propane buffer, pH 7.5, aqueous buffer
[6] = bis-tris-propane buffer, pH 8, aqueous buffer
[7] = lactate buffer, pH 4, aqueous buffer
[8] = lactate buffer, pH 5, aqueous buffer

Row | Structure (SMILES) | solubility kinetic [1, 2] | solubility kinetic [1, 3] | solubility kinetic [1, 4] | solubility kinetic [1, 5] | solubility kinetic [1, 6] | solubility kinetic [1, 7] | solubility kinetic [1, 8] | ratio hCTR/hAMY3R (hAMY3R) | ratio rCTR/rAMY3R (rAMY3R) | EC50 (hAMY3R; luciferase (human receptor assay), Tables S12 and S14, read-out: hAMY3R pEC50 (converted)) | EC50 (hAMY3R; luciferase (human receptor assay), BHK cells stably expressing hCTR+RAMP3 and CRE-luciferase, 3 h, 37 °C, 10% FBS, read-out: hAMY3R EC50) | rAMY3R pIC50 (rAMY3R; SPA binding assay, Tables S13 and S15) | hAMY3R pEC50 (hAMY3R; luciferase (human receptor assay), Tables S12 and S14) | IC50 (rAMY3R; SPA binding assay, Tables S13 and S15, read-out: rAMY3R pIC50 (converted)) | IC50 (rAMY3R; SPA, BHK cell membranes, 125I-rat amylin, 120 min 25 °C, read-out: rAMY3R IC50)
1 | CC[C@H](C)[C@H](NC(=O)[C@H](C)NC(=O)CNC(=O)[C@H](Cc1ccccc1)NC(=O)[C@H](CC(N)=O)NC(=O)[C@@H]1CCCN1C(=O)[C@H](CO)NC(=O)[C@H](CO)NC(=O)[C@H](Cc1c[nH]cn1)NC(=O)[C@H](CCCNC(=N)N)NC(=O)[C@H](CC(C)C)NC(=O)[C@H](Cc1ccccc1)NC(=O)[C@H](CCC(=O)O)NC(=O)[C@H](C)NC(=O)[C@H](CC(C)C)NC(=O)[C@H](CCCNC(=N)N)NC(=O)[C@H](CCC(N)=O)NC(=O)[C@@H](NC(=O)[C@H](C)NC(=O)[C@@H]1CSSC[C@H](NC(=O)[C@@H](N)CCCCNC(=O)CC[C@H](NC(=O)CCCCCCCCCCCCCCCCCCC(=O)O)C(=O)O)C(=O)N[C@@H](CC(N)=O)C(=O)N[C@@H]([C@@H](C)O)C(=O)N[C@@H](C)C(=O)N[C@@H]([C@@H](C)O)C(=O)N1)[C@@H](C)O)C(=O)N1CCC[C@H]1C(=O)N[C@@H](CO)C(=O)N[C@@H](CO)C(=O)N[C@H](C(=O)N[C@@H](CC(N)=O)C(=O)N[C@H](C(=O)NCC(=O)N[C@@H](CO)C(=O)N[C@@H](CCCNC(=N)N)C(=O)N[C@H](C(=O)N[C@@H](Cc1ccc(O)cc1)C(N)=O)[C@@H](C)O)C(C)C)[C@@H](C)O [Peptide 20] (H-K([γGlu-C20 diacid])CNTATCATQRLAEFLRHSSPNFGAIPSSTNVGSRTY-NH2; disulfide 2-7) | ≥ 200 µM | ≥ 200 µM | ≥ 200 µM | 183 µM (≈ 812 µg/mL) | 109 µM (≈ 484 µg/mL) | ≥ 200 µM | ≥ 200 µM | 15 | 111 | – | – | – | – | – | –
2 | CC[C@H](C)[C@H](NC(=O)[C@H](C)NC(=O)CNC(=O)[C@H](Cc1ccccc1)NC(=O)[C@H](CC(N)=O)NC(=O)[C@@H]1CCCN1C(=O)[C@H](CO)NC(=O)[C@H](CO)NC(=O)[C@H](Cc1c[nH]cn1)NC(=O)[C@H](CCCNC(=N)N)NC(=O)[C@H](CC(C)C)NC(=O)[C@H](Cc1ccccc1)NC(=O)[C@H](CCC(=O)O)NC(=O)[C@H](C)NC(=O)[C@H](CC(C)C)NC(=O)[C@H](CCCNC(=N)N)NC(=O)[C@H](CCC(N)=O)NC(=O)[C@@H](NC(=O)[C@H](C)NC(=O)[C@@H]1CSSC[C@H](NC(=O)[C@H](CCCCN)NC(=O)CC[C@H](NC(=O)CCCCCCCCCCCCCCCCCCC(=O)O)C(=O)O)C(=O)N[C@@H](CC(N)=O)C(=O)N[C@@H]([C@@H](C)O)C(=O)N[C@@H](C)C(=O)N[C@@H]([C@@H](C)O)C(=O)N1)[C@@H](C)O)C(=O)N1CCC[C@H]1C(=O)N[C@@H](CO)C(=O)N[C@@H](CO)C(=O)N[C@H](C(=O)N[C@@H](CC(N)=O)C(=O)N[C@H](C(=O)NCC(=O)N1CCC[C@H]1C(=O)N[C@@H](CC(N)=O)C(=O)N[C@H](C(=O)N[C@@H](Cc1ccc(O)cc1)C(N)=O)[C@@H](C)O)C(C)C)[C@@H](C)O [Peptide 12] ({C20 diacid-γGlu}-KCNTATCATQRLAEFLRHSSPNFGAIPSSTNVGPNTY-NH2; disulfide 2-7) | ≥ 200 µM | ≥ 200 µM | ≥ 200 µM | ≥ 200 µM | ≥ 200 µM | ≥ 200 µM | ≥ 200 µM | 6.7 | 34 | 46.8 pM | 47 pM | 9.75 | – | – | –
3 | CC[C@H](C)[C@H](NC(=O)[C@H](C)NC(=O)CNC(=O)[C@H](Cc1ccccc1)NC(=O)[C@H](CC(N)=O)NC(=O)[C@@H]1CCCN1C(=O)[C@H](CO)NC(=O)[C@H](CO)NC(=O)[C@H](Cc1c[nH]cn1)NC(=O)[C@H](CCCNC(=N)N)NC(=O)[C@H](CC(C)C)NC(=O)[C@H](Cc1ccccc1)NC(=O)[C@H](CC(N)=O)NC(=O)[C@H](C)NC(=O)[C@H](CC(C)C)NC(=O)[C@H](CCCNC(=N)N)NC(=O)[C@H](CCC(N)=O)NC(=O)[C@@H](NC(=O)[C@H](C)NC(=O)[C@@H]1CSSC[C@H](NC(=O)[C@@H](N)CCCCNC(=O)CC[C@H](NC(=O)CCCCCCCCCCCCCCCCCCC(=O)O)C(=O)O)C(=O)N[C@@H](CC(N)=O)C(=O)N[C@@H]([C@@H](C)O)C(=O)N[C@@H](C)C(=O)N[C@@H]([C@@H](C)O)C(=O)N1)[C@@H](C)O)C(=O)N1CCC[C@H]1C(=O)N[C@@H](CO)C(=O)N[C@@H](CO)C(=O)N[C@H](C(=O)N[C@@H](CC(N)=O)C(=O)N[C@H](C(=O)NCC(=O)N[C@@H](CO)C(=O)N[C@@H](CCCCN)C(=O)N[C@H](C(=O)N[C@@H](Cc1ccc(O)cc1)C(N)=O)[C@@H](C)O)C(C)C)[C@@H](C)O [Peptide 14] | ≥ 200 µM | ≥ 200 µM | ≥ 200 µM | ≥ 200 µM | ≥ 200 µM | ≥ 200 µM | ≥ 200 µM | 15 | 60 | – | – | – | 9.44 | 912 pM | 920 pM
